Values quoted from earlier work as cited in patent US5670663A (priority 1996, dated 1997).

Experiments:
31-15 = conditions: antibody printed 31-15
8A10 = conditions: monoclonal antibody 8A10
3C6 = conditions: monoclonal antibody 3C6

Compound	relative affinity of antibody for baccatin III and its 7-epi isomer baccatin V (31-15)	cross reactivity with 8A10 (8A10)	reactivity with 3C6 (3C6)	activity against breast, lung and other cancers (cancer; breast, lung and other cancers)	antitumor activity (cancer; general statement)
CC(=O)O[C@H]1C(=O)[C@@]2(C)[C@H]([C@H](OC(=O)c3ccccc3)[C@]3(O)C[C@H](O)C(C)=C1C3(C)C)[C@]1(OC(C)=O)CO[C@@H]1C[C@@H]2O [baccatin III]	binds with equal affinity	cross reacts			
C/C=C(\C)C(=O)N[C@@H](c1ccccc1)[C@@H](O)C(=O)O[C@H]1C[C@@]2(O)[C@@H](OC(=O)c3ccccc3)[C@@H]3[C@]4(OC(C)=O)CO[C@@H]4C[C@H](O)[C@@]3(C)C(=O)[C@H](OC(C)=O)C(=C1C)C2(C)C [Cephalomannine]		cross reacts			
CC(=O)O[C@H]1C(=O)[C@@]2(C)[C@H]([C@H](OC(=O)c3ccccc3)[C@]3(O)C[C@H](OC(=O)[C@H](O)[C@@H](NC(=O)c4ccccc4)c4ccccc4)C(C)=C1C3(C)C)[C@]1(OC(C)=O)CO[C@@H]1C[C@@H]2O [paclitaxel]		cross reacts	specifically reactive	shown activity	significant antitumor activity
CC(=O)O[C@@]12CO[C@@H]1C[C@H](O)[C@@]1(C)C(=O)[C@H](O)C3=C(C)[C@@H](O)C[C@@](O)([C@@H](OC(=O)c4ccccc4)[C@H]21)C3(C)C [10-deacetylbaccatin III]		cross reacts			
CC(=O)O[C@H]1C(=O)[C@]2(C)[C@H](O)C[C@H]3OC[C@@]3(OC(C)=O)[C@H]2[C@H](OC(=O)c2ccccc2)[C@]2(O)C[C@H](O)C(C)=C1C2(C)C [baccatin V]	binds with equal affinity				
